From publication PMC6193938, “Characterization of a novel AICARFT inhibitor which potently elevates ZMP and has anti-tumor activity in murine models” (Scientific Reports, 2018)

Experiments:
Test in all cases: CEREP protein kinase assay
Type in all cases: biochemical
ALK = target: T1, ALK (Homo sapiens, UniProt Q9UM73)
T1 construct: purchased CEREP Panlabs (Eurofins)

FGFR1 = target: T2, FGFR1 (Homo sapiens, UniProt P11362)
T2 construct: purchased CEREP Panlabs (Eurofins)

KIT = target: T3, KIT (Homo sapiens, UniProt P10721)
T3 construct: purchased CEREP Panlabs (Eurofins)

IRAK1 = target: T4, IRAK1 (Homo sapiens, UniProt P51617)
T4 construct: purchased CEREP Panlabs (Eurofins)
T4 sequence (P51617 whole entry): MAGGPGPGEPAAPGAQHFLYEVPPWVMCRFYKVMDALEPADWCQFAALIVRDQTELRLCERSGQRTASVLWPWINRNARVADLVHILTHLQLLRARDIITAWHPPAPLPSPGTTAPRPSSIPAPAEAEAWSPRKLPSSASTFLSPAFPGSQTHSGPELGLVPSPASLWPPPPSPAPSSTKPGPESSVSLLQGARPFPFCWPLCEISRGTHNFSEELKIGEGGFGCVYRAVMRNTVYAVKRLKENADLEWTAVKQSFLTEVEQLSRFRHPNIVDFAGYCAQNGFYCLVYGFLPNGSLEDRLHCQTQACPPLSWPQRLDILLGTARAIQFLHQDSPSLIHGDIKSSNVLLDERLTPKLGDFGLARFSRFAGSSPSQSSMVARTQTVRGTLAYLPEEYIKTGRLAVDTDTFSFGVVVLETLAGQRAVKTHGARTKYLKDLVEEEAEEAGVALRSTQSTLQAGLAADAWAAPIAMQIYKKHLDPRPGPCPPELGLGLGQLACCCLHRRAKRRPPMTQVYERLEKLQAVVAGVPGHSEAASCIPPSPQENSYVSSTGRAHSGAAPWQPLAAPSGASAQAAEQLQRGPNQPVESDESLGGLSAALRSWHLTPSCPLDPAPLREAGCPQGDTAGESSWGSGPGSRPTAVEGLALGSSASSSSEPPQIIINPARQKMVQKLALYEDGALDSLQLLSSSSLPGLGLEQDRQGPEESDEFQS

EPHA3 = target: T5, EPHA3 (Homo sapiens, UniProt P29320)
T5 construct: purchased CEREP Panlabs (Eurofins)
T5 sequence (P29320 21-983): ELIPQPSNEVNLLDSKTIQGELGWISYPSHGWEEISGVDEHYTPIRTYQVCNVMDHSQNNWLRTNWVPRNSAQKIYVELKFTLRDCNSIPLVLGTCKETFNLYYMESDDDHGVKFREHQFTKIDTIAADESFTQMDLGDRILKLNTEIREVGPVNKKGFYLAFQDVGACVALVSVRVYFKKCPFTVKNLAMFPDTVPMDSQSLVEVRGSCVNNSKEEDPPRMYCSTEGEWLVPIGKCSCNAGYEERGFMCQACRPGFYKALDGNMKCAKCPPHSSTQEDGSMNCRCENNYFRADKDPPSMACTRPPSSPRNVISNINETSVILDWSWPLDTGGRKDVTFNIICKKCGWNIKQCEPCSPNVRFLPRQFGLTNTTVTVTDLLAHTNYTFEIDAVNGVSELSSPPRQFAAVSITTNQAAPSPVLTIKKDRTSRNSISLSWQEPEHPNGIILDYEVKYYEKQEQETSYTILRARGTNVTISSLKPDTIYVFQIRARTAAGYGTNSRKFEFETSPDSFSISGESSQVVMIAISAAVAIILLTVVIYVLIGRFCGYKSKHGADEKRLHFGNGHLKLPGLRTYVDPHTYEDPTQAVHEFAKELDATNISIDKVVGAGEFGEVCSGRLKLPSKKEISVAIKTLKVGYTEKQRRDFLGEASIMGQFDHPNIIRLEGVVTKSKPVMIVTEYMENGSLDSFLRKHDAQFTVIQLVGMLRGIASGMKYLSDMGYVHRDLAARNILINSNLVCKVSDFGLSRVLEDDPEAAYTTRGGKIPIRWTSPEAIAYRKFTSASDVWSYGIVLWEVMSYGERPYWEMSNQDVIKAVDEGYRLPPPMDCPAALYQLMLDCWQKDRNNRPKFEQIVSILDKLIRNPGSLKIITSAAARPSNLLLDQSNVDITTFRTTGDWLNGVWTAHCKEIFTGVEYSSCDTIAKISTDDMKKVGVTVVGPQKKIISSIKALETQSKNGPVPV

PDGFRb = target: T6, PDGFRb (Homo sapiens, UniProt P09619)
T6 construct: purchased CEREP Panlabs (Eurofins)
T6 sequence (P09619 33-1106): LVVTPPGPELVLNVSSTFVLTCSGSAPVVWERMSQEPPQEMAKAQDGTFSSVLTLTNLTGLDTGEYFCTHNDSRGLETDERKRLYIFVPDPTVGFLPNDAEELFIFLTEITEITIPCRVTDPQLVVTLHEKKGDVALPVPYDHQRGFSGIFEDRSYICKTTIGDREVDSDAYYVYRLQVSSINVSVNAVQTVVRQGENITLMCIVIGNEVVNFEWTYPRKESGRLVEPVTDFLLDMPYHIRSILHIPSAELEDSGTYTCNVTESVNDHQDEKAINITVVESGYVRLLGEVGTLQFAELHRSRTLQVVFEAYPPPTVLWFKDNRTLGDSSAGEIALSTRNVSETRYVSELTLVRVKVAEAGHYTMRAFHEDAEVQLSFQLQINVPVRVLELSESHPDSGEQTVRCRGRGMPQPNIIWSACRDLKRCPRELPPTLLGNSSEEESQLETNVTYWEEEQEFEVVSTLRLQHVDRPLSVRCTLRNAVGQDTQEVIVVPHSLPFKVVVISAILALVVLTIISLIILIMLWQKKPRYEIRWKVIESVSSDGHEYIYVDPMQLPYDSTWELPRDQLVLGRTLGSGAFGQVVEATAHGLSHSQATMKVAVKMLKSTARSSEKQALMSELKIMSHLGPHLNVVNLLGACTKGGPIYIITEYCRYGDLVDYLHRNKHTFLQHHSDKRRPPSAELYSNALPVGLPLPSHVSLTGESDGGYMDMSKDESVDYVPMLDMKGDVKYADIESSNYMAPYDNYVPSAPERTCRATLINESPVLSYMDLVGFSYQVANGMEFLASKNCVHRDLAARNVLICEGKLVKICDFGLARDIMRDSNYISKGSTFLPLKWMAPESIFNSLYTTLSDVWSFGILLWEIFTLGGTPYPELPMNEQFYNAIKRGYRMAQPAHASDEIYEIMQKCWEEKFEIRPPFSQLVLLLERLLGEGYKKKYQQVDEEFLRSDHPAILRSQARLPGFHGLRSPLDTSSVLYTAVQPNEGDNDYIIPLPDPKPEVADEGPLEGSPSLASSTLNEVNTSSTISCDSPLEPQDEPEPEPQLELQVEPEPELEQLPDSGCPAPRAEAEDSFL

ABL = target: T7, ABL (Homo sapiens, UniProt P00519)
T7 construct: purchased CEREP Panlabs (Eurofins)

TTK = target: T8, TTK (Homo sapiens, UniProt P33981)
T8 construct: purchased CEREP Panlabs (Eurofins)
T8 sequence (P33981 1-857): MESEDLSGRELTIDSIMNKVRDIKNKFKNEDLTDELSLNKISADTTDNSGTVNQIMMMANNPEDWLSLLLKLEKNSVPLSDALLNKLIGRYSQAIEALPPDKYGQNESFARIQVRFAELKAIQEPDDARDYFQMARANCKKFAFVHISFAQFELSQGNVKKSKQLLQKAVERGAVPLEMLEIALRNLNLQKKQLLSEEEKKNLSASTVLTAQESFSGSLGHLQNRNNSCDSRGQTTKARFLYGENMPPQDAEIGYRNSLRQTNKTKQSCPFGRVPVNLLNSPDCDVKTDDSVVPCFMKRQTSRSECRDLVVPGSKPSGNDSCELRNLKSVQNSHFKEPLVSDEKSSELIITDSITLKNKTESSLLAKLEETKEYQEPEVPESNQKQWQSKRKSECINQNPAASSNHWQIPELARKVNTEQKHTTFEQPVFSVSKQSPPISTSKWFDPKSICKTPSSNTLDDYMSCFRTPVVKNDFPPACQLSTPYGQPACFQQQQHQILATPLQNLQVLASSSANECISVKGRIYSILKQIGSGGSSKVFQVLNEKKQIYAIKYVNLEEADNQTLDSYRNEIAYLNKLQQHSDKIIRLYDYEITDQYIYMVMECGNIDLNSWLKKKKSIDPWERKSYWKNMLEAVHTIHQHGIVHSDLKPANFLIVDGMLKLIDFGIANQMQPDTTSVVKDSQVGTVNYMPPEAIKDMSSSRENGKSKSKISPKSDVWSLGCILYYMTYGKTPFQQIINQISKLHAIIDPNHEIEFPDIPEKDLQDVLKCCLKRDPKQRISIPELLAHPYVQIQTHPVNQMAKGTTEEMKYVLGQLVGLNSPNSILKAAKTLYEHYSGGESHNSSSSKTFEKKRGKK

CHK1 = target: T9, CHK1 (Homo sapiens, UniProt O14757)
T9 construct: purchased CEREP Panlabs (Eurofins)
T9 sequence (O14757 1-476): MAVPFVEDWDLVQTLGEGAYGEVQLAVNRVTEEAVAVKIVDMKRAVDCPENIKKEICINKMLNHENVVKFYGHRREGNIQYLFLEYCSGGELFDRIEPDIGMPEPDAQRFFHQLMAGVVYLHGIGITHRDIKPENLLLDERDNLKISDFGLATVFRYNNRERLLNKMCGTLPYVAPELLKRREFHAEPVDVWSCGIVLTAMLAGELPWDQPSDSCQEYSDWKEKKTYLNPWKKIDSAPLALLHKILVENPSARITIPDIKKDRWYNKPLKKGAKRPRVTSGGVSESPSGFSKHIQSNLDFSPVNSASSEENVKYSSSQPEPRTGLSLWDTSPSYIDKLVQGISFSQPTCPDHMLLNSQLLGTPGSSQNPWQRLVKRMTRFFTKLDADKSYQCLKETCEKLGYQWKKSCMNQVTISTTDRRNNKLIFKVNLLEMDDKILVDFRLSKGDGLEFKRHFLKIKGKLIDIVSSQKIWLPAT

T1 sequence (Q9UM73 19-1620): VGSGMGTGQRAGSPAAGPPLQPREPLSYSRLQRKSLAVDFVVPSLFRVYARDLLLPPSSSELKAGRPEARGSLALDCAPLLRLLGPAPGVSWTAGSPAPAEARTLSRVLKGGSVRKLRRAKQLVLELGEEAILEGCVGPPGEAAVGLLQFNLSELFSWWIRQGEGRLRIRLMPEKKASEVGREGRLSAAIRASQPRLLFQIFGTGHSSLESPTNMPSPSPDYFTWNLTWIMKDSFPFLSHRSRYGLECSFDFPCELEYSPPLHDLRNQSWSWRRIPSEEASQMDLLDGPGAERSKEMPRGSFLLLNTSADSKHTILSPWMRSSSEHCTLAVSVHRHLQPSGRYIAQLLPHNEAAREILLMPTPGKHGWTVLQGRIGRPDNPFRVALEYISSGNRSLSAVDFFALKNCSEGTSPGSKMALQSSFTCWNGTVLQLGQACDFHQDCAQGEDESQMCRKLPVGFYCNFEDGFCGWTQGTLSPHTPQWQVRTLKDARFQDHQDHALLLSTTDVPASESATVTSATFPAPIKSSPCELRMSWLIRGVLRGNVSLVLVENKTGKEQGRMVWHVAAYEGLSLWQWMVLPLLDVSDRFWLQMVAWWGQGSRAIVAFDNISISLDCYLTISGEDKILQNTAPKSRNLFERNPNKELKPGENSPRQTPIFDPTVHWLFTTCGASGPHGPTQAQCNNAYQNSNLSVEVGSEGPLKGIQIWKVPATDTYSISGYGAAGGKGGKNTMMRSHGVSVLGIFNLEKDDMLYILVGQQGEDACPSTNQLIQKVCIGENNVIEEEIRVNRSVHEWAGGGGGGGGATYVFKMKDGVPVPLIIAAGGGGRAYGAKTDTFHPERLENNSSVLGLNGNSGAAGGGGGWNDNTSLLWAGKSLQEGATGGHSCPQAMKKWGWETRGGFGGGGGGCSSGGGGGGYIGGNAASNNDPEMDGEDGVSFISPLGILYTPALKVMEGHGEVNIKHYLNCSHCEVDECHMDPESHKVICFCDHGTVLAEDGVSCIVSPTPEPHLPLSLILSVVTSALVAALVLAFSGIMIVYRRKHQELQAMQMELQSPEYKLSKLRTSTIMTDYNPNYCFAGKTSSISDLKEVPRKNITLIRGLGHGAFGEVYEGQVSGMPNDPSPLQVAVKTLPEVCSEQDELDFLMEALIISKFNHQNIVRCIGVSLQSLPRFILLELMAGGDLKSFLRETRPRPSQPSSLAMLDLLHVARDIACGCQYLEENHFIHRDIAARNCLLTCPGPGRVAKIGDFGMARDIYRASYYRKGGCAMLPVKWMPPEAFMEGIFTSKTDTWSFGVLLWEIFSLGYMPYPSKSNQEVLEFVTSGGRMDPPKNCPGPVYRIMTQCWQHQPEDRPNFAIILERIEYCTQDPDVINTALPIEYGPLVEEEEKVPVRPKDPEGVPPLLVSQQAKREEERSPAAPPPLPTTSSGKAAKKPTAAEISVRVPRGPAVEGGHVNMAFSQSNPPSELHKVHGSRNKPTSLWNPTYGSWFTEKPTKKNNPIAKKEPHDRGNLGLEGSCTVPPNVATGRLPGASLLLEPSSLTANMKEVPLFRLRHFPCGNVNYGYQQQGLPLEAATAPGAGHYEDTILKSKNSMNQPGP
T2 sequence (P11362 22-822): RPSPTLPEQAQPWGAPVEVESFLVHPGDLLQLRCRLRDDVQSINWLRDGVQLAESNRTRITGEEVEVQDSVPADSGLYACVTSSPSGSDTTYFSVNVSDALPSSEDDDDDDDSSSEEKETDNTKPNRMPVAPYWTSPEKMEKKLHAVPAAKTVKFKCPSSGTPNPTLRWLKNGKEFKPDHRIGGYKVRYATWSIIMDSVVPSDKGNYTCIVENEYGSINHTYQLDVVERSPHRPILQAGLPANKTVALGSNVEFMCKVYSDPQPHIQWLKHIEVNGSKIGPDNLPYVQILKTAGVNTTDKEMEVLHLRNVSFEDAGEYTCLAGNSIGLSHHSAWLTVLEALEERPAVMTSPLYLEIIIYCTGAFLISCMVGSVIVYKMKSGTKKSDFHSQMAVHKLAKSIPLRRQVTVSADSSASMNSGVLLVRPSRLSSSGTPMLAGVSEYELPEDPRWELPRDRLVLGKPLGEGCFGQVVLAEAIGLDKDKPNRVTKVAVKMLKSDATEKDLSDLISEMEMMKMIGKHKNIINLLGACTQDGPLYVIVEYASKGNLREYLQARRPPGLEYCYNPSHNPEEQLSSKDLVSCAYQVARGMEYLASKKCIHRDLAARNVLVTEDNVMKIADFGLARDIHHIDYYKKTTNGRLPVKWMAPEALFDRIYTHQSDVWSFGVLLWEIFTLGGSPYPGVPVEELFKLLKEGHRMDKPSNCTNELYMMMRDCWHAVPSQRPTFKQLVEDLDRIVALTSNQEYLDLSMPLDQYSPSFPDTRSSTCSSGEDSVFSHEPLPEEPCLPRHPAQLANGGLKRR

Q: What does the source list for O=c1[nH]ccc2cc(F)c(NS(=O)(=O)c3ccc(N4CC[C@@H](O)C4)s3)cc12 [LSN3213128, N-(6-Fluoro-1-oxo-1,2-dihydroisoquinolin-7-yl)-5-[(3R)-3-hydroxypyrrolidin-1-yl]thiophene-2-sulfonamide]?
A: inhibition at 0.2 µM (ALK; @ 0.2 uM): -16.7%; inhibition at 2 µM (ALK; @ 2 uM): 7.47%; inhibition at 20 µM (ALK; @ 20 uM): 31.8%; inhibition at 0.2 µM (FGFR1; @ 0.2 uM): -9.3%; inhibition at 2 µM (FGFR1; @ 2 uM): 0.634%; inhibition at 20 µM (FGFR1; @ 20 uM): 10.3%; inhibition at 0.2 µM (KIT; @ 0.2 uM): -6.65%; inhibition at 2 µM (KIT; @ 2 uM): 6.65%; inhibition at 20 µM (KIT; @ 20 uM): 42%; inhibition at 0.2 µM (IRAK1; @ 0.2 uM): -0.781%; inhibition at 2 µM (IRAK1; @ 2 uM): 4.26%; inhibition at 20 µM (IRAK1; @ 20 uM): 42.2%; inhibition at 0.2 µM (EPHA3; @ 0.2 uM): -2.09%; inhibition at 2 µM (EPHA3; @ 2 uM): 9.04%; inhibition at 20 µM (EPHA3; @ 20 uM): 51.6%; inhibition at 0.2 µM (PDGFRb; @ 0.2 uM): -85.9%; inhibition at 2 µM (PDGFRb; @ 2 uM): -63.2%; inhibition at 20 µM (PDGFRb; @ 20 uM): -71%; inhibition at 0.2 µM (ABL; @ 0.2 uM): -13.8%; inhibition at 2 µM (ABL; @ 2 uM): -14.6%; inhibition at 20 µM (ABL; @ 20 uM): -0.27%; inhibition at 0.2 µM (TTK; @ 0.2 uM): -4.62%; inhibition at 2 µM (TTK; @ 2 uM): 6.44%; inhibition at 20 µM (TTK; @ 20 uM): 18.6%; inhibition at 0.2 µM (CHK1; @ 0.2 uM): -8.96%; inhibition at 2 µM (CHK1; @ 2 uM): 14.5%; inhibition at 20 µM (CHK1; @ 20 uM): 5.24%
